Reference: patent US20250100997A1, “PYRIDAZINYL AMINO DERIVATIVES AS ALK5 INHIBITORS” (CHIESI FARMACEUTICI S.P.A., priority 2022, published 2025)

Target: T1, human ALK5 (recombinant TGF β1 N-term GST-tagged, 80-end) (Homo sapiens, UniProt P36897)
T1 construct: human ALK5 (recombinant TGF β1 N-term GST-tagged, 80-end); GST (N); purchased
T1 sequence (P36897 80-503 limits assumed): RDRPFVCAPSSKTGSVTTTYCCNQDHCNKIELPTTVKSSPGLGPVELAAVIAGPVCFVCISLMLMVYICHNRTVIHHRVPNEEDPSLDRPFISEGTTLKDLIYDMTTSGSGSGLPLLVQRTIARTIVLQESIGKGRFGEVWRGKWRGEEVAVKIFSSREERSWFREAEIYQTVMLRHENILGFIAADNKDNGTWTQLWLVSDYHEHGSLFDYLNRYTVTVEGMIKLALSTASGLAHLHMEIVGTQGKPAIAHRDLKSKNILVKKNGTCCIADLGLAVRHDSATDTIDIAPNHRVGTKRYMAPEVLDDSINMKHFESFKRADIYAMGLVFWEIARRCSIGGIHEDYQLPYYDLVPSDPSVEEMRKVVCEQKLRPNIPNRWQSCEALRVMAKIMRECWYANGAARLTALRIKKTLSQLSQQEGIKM
Test: ADP-GLO kinase assay, biochemical ALK5 assay
Conditions: pIC50 converted to pKi using the Cheng-Prusoff equation, ATP at Km, or high ATP (30-fold Km) for very potent compounds, 25° C.
Experimental: The enzymatic activity of compounds of the present invention was monitored measuring the formation of ADP using the ADP-GLO Kinases assay. Following the incubation of the purified enzyme, a substrate and ATP, the produced ADP was converted into ATP, which in turn was converted into light by Ultra-Glo Luciferase. The luminescent signal positively correlated with ADP amount and kinase activity. Briefly, the kinase reaction was performed by incubating 2.6 nM of the purified, commercially available human ALK5 (recombinant TGF β1 N-term GST-tagged, 80-end), a final concentration of TGFβ1 peptide 94.5 μM (Promega, T36-58) and ultra-pure ATP (Promega V915B). The ATP concentration was set at the Km value (concentration of substrate which permits the enzyme to achieve half maximal velocity (Vmax)) of ALK5 (0.5 μM). Compound and ALK5 kinase were mixed and incubated for 15 mins. Reactions were initiated by addition of ATP at a final concentration in the assay of […]. After an incubation of 120 min, the reaction was stopped, and ADP production detected with ADP-Glo kit according to manufacturer's indications. To overcome the assay wall limit for very potent compounds the assay protocol was changed by using a high ATP concentration (30-fold Km). Compounds and ALK5 kinase were mixed for 15 min and the reaction initiated by addition of TGFβ1 peptide and ATP at a final concentration in the assay of 15 μM. After an incubation of 60 min, the kinase reaction was stopped, and ADP production detected with ADP-Glo kit according to manufacturer's indications.
All reaction and incubation steps were performed at 25° C. and the assays were performed in 384-well format and validated using a selection of reference compounds tested in 11-point concentration-response curve.
Results were expressed as pIC50 (negative logarithm of IC50) and subsequently converted to pKi (negative logarithm of […]) using the Cheng-Prusoff equation. The higher the value of pKi, the greater the inhibition of ALK5 activity.

Row | Compound | Ki
1 | CN1CCN(CCC(=O)Nc2cc(Nc3cc(-c4cc(Cl)ccc4F)nnc3C3=CCN(C(=O)OC(C)(C)C)CC3)ccn2)CC1 [Example 1, tert-butyl 4-[6-(5-chloro-2-fluorophenyl)-4-({2-[3-(4-methylpiperazin-1-yl)propanamido]pyridin-4-yl}amino)pyridazin-3-yl]-1,2,3,6-tetrahydropyridine-1-carboxylate] | 1 to 3.16 nM
2 | CN1CCN(CCC(=O)Nc2cc(Nc3cc(-c4cc(Cl)ccc4F)nnc3C3CCN(C(=O)OC(C)(C)C)CC3)ccn2)CC1 [Example 2, tert-butyl 4-[6-(5-chloro-2-fluorophenyl)-4-({2-[3-(4-methylpiperazin-1-yl)propanamido]pyridin-4-yl}amino)pyridazin-3-yl]piperidine-1-carboxylate] | 1 to 3.16 nM
3 | CN1CCN(CCC(=O)Nc2cc(Nc3cc(-c4cc(Cl)ccc4F)nnc3C3=CCNCC3)ccn2)CC1 [Example 3, N-(4-{[6-(5-chloro-2-fluorophenyl)-3-(1,2,3,6-tetrahydropyridin-4-yl)pyridazin-4-yl]amino}pyridin-2-yl)-3-(4-methylpiperazin-1-yl)propanamide] | 1 to 3.16 nM
4 | COC(=O)N1CC=C(c2nnc(-c3cc(Cl)ccc3F)cc2Nc2ccnc(NC(=O)CCN3CCN(C)CC3)c2)CC1 [Example 5, methyl 4-[6-(5-chloro-2-fluorophenyl)-4-({2-[3-(4-methylpiperazin-1-yl)propanamido]pyridin-4-yl}amino)pyridazin-3-yl]-1,2,3,6-tetrahydropyridine-1-carboxylate] | 1 to 3.16 nM
5 | CN1CC=C(c2nnc(-c3cc(Cl)ccc3F)cc2Nc2ccnc(NC(=O)CCN3CCN(C)CC3)c2)CC1 [Example 6, N-(4-{[6-(5-chloro-2-fluorophenyl)-3-(1-methyl-1,2,3,6-tetrahydropyridin-4-yl)pyridazin-4-yl]amino}pyridin-2-yl)-3-(4-methylpiperazin-1-yl)propanamide] | 1 to 3.16 nM
6 | CN1CCC(c2nnc(-c3cc(Cl)ccc3F)cc2Nc2ccnc(NC(=O)CCN3CCN(C)CC3)c2)CC1 [Example 8, N-(4-{[6-(5-chloro-2-fluorophenyl)-3-(1-methylpiperidin-4-yl)pyridazin-4-yl]amino}pyridin-2-yl)-3-(4-methylpiperazin-1-yl)propanamide] | 1 to 3.16 nM
7 | CN1CCN(CCC(=O)Nc2cc(Nc3cc(-c4cc(Cl)ccc4F)nnc3C3=CCCNC3)ccn2)CC1 [Example 12, N-(4-{[6-(5-chloro-2-fluorophenyl)-3-(1,2,5,6-tetrahydropyridin-3-yl)pyridazin-4-yl]amino}pyridin-2-yl)-3-(4-methylpiperazin-1-yl)propanamide] | 1 to 3.16 nM
8 | CN1CCN(CCC(=O)Nc2cc(Nc3cc(-c4cc(Cl)ccc4F)nnc3C3=CCCN(C)C3)ccn2)CC1 [Example 13, N-(4-{[6-(5-chloro-2-fluorophenyl)-3-(1-methyl-1,2,5,6-tetrahydropyridin-3-yl)pyridazin-4-yl]amino}pyridin-2-yl)-3-(4-methylpiperazin-1-yl)propanamide] | 1 to 3.16 nM
9 | CC(=O)N1CCC=C(c2nnc(-c3cc(Cl)ccc3F)cc2Nc2ccnc(NC(=O)CCN3CCN(C)CC3)c2)C1 [Example 14, N-(4-{[3-(1-acetyl-1,2,5,6-tetrahydropyridin-3-yl)-6-(5-chloro-2-fluorophenyl)pyridazin-4-yl]amino}pyridin-2-yl)-3-(4-methylpiperazin-1-yl)propanamide] | 1 to 3.16 nM
10 | CN1CCN(CCC(=O)Nc2cc(Nc3cc(-c4cc(Cl)ccc4F)nnc3C3CCC(=O)N3C)ccn2)CC1 (stereo not shown) [Example 17, N-(4-((6-(5-chloro-2-fluorophenyl)-3-(1-methyl-5-oxopyrrolidin-2-yl)pyridazin-4-yl)amino)pyridin-2-yl)-3-(4-methylpiperazin-1-yl)propanamide] | 1 to 3.16 nM

Stronger by Ki, values ahead:

Row | Ki | Compound
11 | 0.126 to 0.794 nM | CN1CCN(CCC(=O)Nc2cc(Nc3cc(-c4cc(Cl)ccc4F)nnc3C3CCNCC3)ccn2)CC1 [Example 4, N-(4-{[6-(5-chloro-2-fluorophenyl)-3-(piperidin-4-yl)pyridazin-4-yl]amino}pyridin-2-yl)-3-(4-methylpiperazin-1-yl)propanamide]
12 | 0.126 to 0.794 nM | COC(=O)N1CCC(c2nnc(-c3cc(Cl)ccc3F)cc2Nc2ccnc(NC(=O)CCN3CCN(C)CC3)c2)CC1 [Example 7, methyl 4-[6-(5-chloro-2-fluorophenyl)-4-({2-[3-(4-methylpiperazin-1-yl)propanamido]pyridin-4-yl}amino)pyridazin-3-yl]piperidine-1-carboxylate]
13 | 0.126 to 0.794 nM | CN1CCN(CCC(=O)Nc2cc(Nc3cc(-c4cc(Cl)ccc4F)nnc3C3CN(C(=O)OC(C)(C)C)C3)ccn2)CC1 [Example 9, tert-butyl 3-[6-(5-chloro-2-fluorophenyl)-4-({2-[3-(4-methylpiperazin-1-yl)propanamido]pyridin-4-yl}amino)pyridazin-3-yl]azetidine-1-carboxylate]
14 | 0.126 to 0.794 nM | CN1CCN(CCC(=O)Nc2cc(Nc3cc(-c4cc(Cl)ccc4F)nnc3C3CNC3)ccn2)CC1 [Example 10, N-(4-{[3-(azetidin-3-yl)-6-(5-chloro-2-fluorophenyl)pyridazin-4-yl]amino}pyridin-2-yl)-3-(4-methylpiperazin-1-yl)propanamide]
15 | 0.126 to 0.794 nM | CN1CCN(CCC(=O)Nc2cc(Nc3cc(-c4cc(Cl)ccc4F)nnc3C3=CCCN(C(=O)OC(C)(C)C)C3)ccn2)CC1 [Example 11, tert-butyl 5-[6-(5-chloro-2-fluorophenyl)-4-({2-[3-(4-methylpiperazin-1-yl)propanamido]pyridin-4-yl}amino)pyridazin-3-yl]-1,2,3,6-tetrahydropyridine-1-carboxylate]
16 | 0.126 to 0.794 nM | CN1CCN(CCC(=O)Nc2cc(Nc3cc(-c4cc(Cl)ccc4F)nnc3C3CCN3C(=O)OC(C)(C)C)ccn2)CC1 (stereo not shown) [Example 15, tert-butyl 2-[6-(5-chloro-2-fluorophenyl)-4-({2-[3-(4-methylpiperazin-1-yl)propanamido]pyridin-4-yl}amino)pyridazin-3-yl]azetidine-1-carboxylate]
17 | 0.126 to 0.794 nM | CN1CCN(CCC(=O)Nc2cc(Nc3cc(-c4cc(Cl)ccc4F)nnc3C3CCN3)ccn2)CC1 (stereo not shown) [Example 16, N-(4-{[3-(azetidin-2-yl)-6-(5-chloro-2-fluorophenyl)pyridazin-4-yl]amino}pyridin-2-yl)-3-(4-methylpiperazin-1-yl)propanamide]
18 | 0.126 to 0.794 nM | CN1CCN(CCC(=O)Nc2cc(Nc3cc(-c4cc(Cl)ccc4F)nnc3C3CCO3)ccn2)CC1 (stereo not shown) [Example 18, N-(4-{[6-(5-chloro-2-fluorophenyl)-3-(oxetan-2-yl)pyridazin-4-yl]amino}pyridin-2-yl)-3-(4-methylpiperazin-1-yl)propanamide]
19 | 0.126 to 0.794 nM | CN1CCN(CCC(=O)Nc2cc(Nc3cc(-c4cc(Cl)ccc4F)nnc3C3CCC(=O)S3)ccn2)CC1 (stereo not shown) [Example 19, N-(4-((6-(5-chloro-2-fluorophenyl)-3-(5-oxotetrahydrothiophen-2-yl)pyridazin-4-yl)amino)pyridin-2-yl)-3-(4-methylpiperazin-1-yl)propanamide]
20 | 0.126 to 0.794 nM | CN1CCN(CCC(=O)Nc2cc(Nc3cc(-c4cc(Cl)ccc4F)nnc3C3COC(C)(C)N3C(=O)OC(C)(C)C)ccn2)CC1 (stereo not shown) [Example 20, tert-butyl 4-(6-(5-chloro-2-fluorophenyl)-4-((2-(3-(4-methylpiperazin-1-yl)propanamido)pyridin-4-yl)amino)pyridazin-3-yl)-2,2-dimethyloxazolidine-3-carboxylate]
21 | 0.126 to 0.794 nM | CN1CCN(CCC(=O)Nc2cc(Nc3cc(-c4cc(Cl)ccc4F)nnc3C3CCOC3)ccn2)CC1 (stereo not shown) [Example 21, N-(4-((6-(5-chloro-2-fluorophenyl)-3-(tetrahydrofuran-3-yl)pyridazin-4-yl)amino)pyridin-2-yl)-3-(4-methylpiperazin-1-yl)propanamide]
22 | 0.126 to 0.794 nM | CN1CCN(CCC(=O)Nc2cc(Nc3cc(-c4cc(Cl)ccc4F)nnc3C3CCCS3)ccn2)CC1 (stereo not shown) [Example 22, N-(4-((6-(5-chloro-2-fluorophenyl)-3-(tetrahydrothiophen-2-yl)pyridazin-4-yl)amino)pyridin-2-yl)-3-(4-methylpiperazin-1-yl)propanamide]
